Experimental data as given in patent US11624068B2, “Compositions and methods for improving immune system function” (Tufts Medical Center, Inc., priority 2016, dated 2023).

Assays:
Assay type in all cases: cell-based, human
CD4 T cells = assay: IL2 ELISA, T cells repeatedly stimulated with anti-CD3/CD28 beads (in vitro exhaustion model); conditions: T cells continuously with Ezh2 inhibitor (10 nmol), after the 4th stimulation
Protocol: (§1) In experiments using p38MAPK, JNK, MEK1 and Ezh2 inhibitors, cells were grown in the continued presence of inhibitors. After each wash and activation step, cells were treated with a fresh batch of inhibitors. The following inhibitors were used: MAPKp38-SB202190 (10 μmol/ml) (Sigma, cat. S7067), JNK-SP600125 (10 μmol/ml) (Sigma, cat. S5567), MEK1-PD98059 (5 μmol/ml) (Calbiochem, cat. 513001), MEK1/2-inhibitor III (5 μmol/ml) (Calbiochem, cat. 444966) and Ezh2-[…] (10 nmol) (Millipore, cat. 505052). DMSO was used as a mock treatment. The specificity of p38MAPK, JNK and MEK1 inhibitors to block the downstream kinases, phospho-ATF2, phospho-cJun and phospho-ERK, respectively, was confirmed by westerns (FIG. 18A).
(§2) ELISA assays were performed using human IL2 and IFNγ Ready-SET-Go kits (eBioscience). Three replicates were included for each experimental set and each experiment was repeated three or more times. ELISA was performed on the supernatant saved from each stimulation step. CD4+ or CD8+ T cells were stimulated with anti-CD3/CD28 beads and cultured for 48 hours, after which cells were spun down and supernatants carefully removed and saved at −20° C. The same procedure was followed for the rest of the stimulation steps.
Human T cell isolation and culture in vitro. […] 48 hours after the first stimulation, cells were counted and washed, and beads were removed using a magnet. […]

H3-K27 trimethylation = assay: Western blot for H3K27me3 in repeatedly stimulated T cells; conditions: inhibitor maintained in activation cultures; FIG. 2D
Protocol: as §1
(§3) For denaturing westerns, 20-40 μg of protein extracted from T cells was used. RIPA lysis buffer (Sigma, cat. R0278) was used to prepare whole cell extracts. For native gel analysis, cells were lysed in native lysis buffer (50 mM Tris-Cl, pH 8.0; 1% NP40; 150 mM NaCl, 100 μg leupeptin, 1 mM PMSF, 5 mM orthovanadate). For both native and denaturating conditions, samples were resolved on 4-15% TGX precast gels (Bio-Rad, cat. 456-1084) with the difference in running buffer. Native samples were run without SDS. […]

[1] = test system: H3-K27 trimethylation of the IL2 promoter; assay: ChIP with anti-H3K27me3 antibody and qPCR for IL2 promoter; conditions: repeatedly stimulated CD4 T cells; FIG. 2E
Protocol: Chromatin immunoprecipitation assay. The ChIP assay was performed using a ChIP-IT high sensitivity kit (Active Motif, cat. 53040), following the manufacturer's recommended protocol. Human CD4+ T cells were repeatedly activated with CD3/CD28 beads in the continued presence of Ezh2 inhibitor or transfected with YY1 shRNA and a control after 2nd stimulation. Approximately 15 μg of chromatin was used in each reaction with an antibody that specifically recognizes H3K27me3 (Active Motif, cat. 39155). Fold enrichment was calculated relative to IgG and input.

T cells = assay: IFNγ ELISA, repeatedly stimulated T cells; conditions: FIG. 16
Protocol: as §2
Human T cell isolation and culture in vitro. CD4+ and CD8+ T cells were enriched from peripheral blood mononuclear cells obtained from healthy donors. Leukoreduction filters from Boston Children's Hospital that were processed using histopaque (Sigma) cushions to separate PBMCs were used. Human CD8+ and CD4+ cells were enriched using naïve CD8 and CD4 T cell enrichment cocktail (BD Biosciences, cat. 51-900481 and 9002314, respectively). […] Cells were stimulated the same day with T-Activator CD3/CD28 dynabeads (Life Technologies, cat. 11131D) following the manufacturer's recommendations. 48 hours after the first stimulation, cells were counted and washed, and beads were removed using a magnet. This was followed by a second, third and fourth round of stimulations with fresh batches of CD3/CD28 beads. […]

CEA-CAR T cells = assay: IL2 ELISA in MIPCEA/CAR-T cell cocultures; conditions: 2nd generation CAR-T, MIPCEA cocultures; Ezh2 inhibitor 10 nm or nivolumab 20 μg/ml
Protocol: as §2
To produce second generation CEA-CAR T cells, T cells were modified by retroviral gene therapy to express a single chain antibody domain (sFv) that recognizes CEA tumor antigen. This anti-CEA binding domain is fused together with the full length sequence of CD28 co-stimulatory molecule and sequences of the signaling chain of the CD3 complex (signal 1+2) (FIG. 6A) (Nolan et al., 1999). The clinical grade CEA-CAR vector producing cells have been successfully tested in a number of in vitro studies as well as in a clinical setting to modify T cells for breast cancer clinical trials (Katz et al., 2015). […]
MIP101 and MIPCEA, tumor cell coculture with CEA-CAR modified T cells. […] Each time after the coculture, tumor cells were trypsinized (cellgro) and counted.

MIPCEA cells = conditions: by the 3rd co-culture; Ezh2 inhibitor 10 nm
From the text: To produce second generation CEA-CAR T cells, T cells were modified by retroviral gene therapy to express a single chain antibody domain (sFv) that recognizes CEA tumor antigen. This anti-CEA binding domain is fused together with the full length sequence of CD28 co-stimulatory molecule and sequences of the signaling chain of the CD3 complex (signal 1+2) (FIG. 6A) (Nolan et al., 1999). The clinical grade CEA-CAR vector producing cells have been successfully tested in a number of in vitro studies as well as in a clinical setting to modify T cells for breast cancer clinical trials (Katz et al., 2015). The first generation CEA-CAR contains anti-CEA binding domain fused with signaling chain (signal 1) (Nolan et al., 1999 Clin Cancer Res 5, 3928-3941). Transduction of T cells with anti CEA-CAR vector were as previously described (Beaudoin et al., 2008 Nat Med 9, 540-547).
MIP101 and MIPCEA, tumor cell coculture with CEA-CAR modified T cells. MIP101 is a CEA-undifferentiated human carcinoma cell line derived from liver metastases of colonic adenocarcinoma patients. The MIPCEA cell line was generated by stably expressing the full length CEA gene in MIP101 cells (Thomas et al., 1995 Cancer Lett 92, 59-66). […] Each time after the coculture, tumor cells were trypsinized (cellgro) and counted.

YY1 promoter = YY1 promoter luciferase reporter assay in restimulated T cells; conditions: after four stimulations, continued presence of inhibitor; FIG. 5C upper
Protocol: Human YY1 promoter luciferase construct YY1-pGLuc-basic was a kind gift from Dr. Guangchao Sui of Wake Forest Health Sciences, NC (Huang et al., 2012 Nucleic Acids Res 40, 1033-1049). The cJun/ATF2 octameric palindrome cyclic AMP-response element (CRE), 5′-[…]-3′(SEQ ID NO: 40), was mutated to 5′-cGgCaTaA-3′ (SEQ ID NO: 41) using the service of GenScript Inc. (Item cat. 426354-1).
The reporter assays and plasmid overexpression were performed in 6 well tissue culture plates. 5×10^6 T cells were transfected with plasmids using Amaxa human T cell nucleofector Kit, cat. VPA-1002 (Lonza). Transfections were performed using Amaxa nucleofector II device, program no. T-023/T-020. Luciferase assays were generally performed 48 hours after transfections. […] The YY1 promoter luciferase assay was measured from T cell culture supernatants using BioLux Gaussia lucferase assay kit (New England Biolabs, cat. no. E3300S). Amounts of transfected plasmids were kept proportionally constant. Samples were assayed for reporter activity using a Gloma 20/20 Luminometer (Promega), essentially using the recommended parameters provided by the reagent suppliers.
In experiments using p38MAPK, JNK, MEK1 and Ezh2 inhibitors, cells were grown in the continued presence of inhibitors. After each wash and activation step, cells were treated with a fresh batch of inhibitors. […]

YY1 = assay: Western blot of YY1 protein in T cells grown with kinase inhibitors; conditions: same cells as reporter assay; FIG. 5C lower
Protocol: as §1, §3

[2] = test system: phospho-ATF2, phospho-cJun and phospho-ERK; assay: Kinase activities by western blot (inhibitor specificity); conditions: respectively, westerns, FIG. 18A
Protocol: as §1, §3

Molecule	IL2 production of CAR-T cells on repeated exposure to tumor cells (CEA-CAR T cells)	YY1 luciferase reporter transcriptional activity (YY1 promoter)	specificity to block the downstream kinases [2]	other results
CCCc1cc(C)[nH]c(=O)c1CNC(=O)c1cc(-c2ccc(N3CCN(C(C)C)CC3)nc2)cc2c1cnn2C(C)C [Ezh2 inhibitor]	sustained IL2			IL2 exceeding that of control T cells by a factor (CD4 T cells): > 40; H3-K27 trimethylation by western (H3-K27 trimethylation): suppressed; H3-K27 trimethylation of the IL2 promoter by ChIP/qPCR [1]: suppressed; IFNγ shutdown after repeated T cell stimulation (T cells): does not protect; net benefit in killing versus untreated CAR-T cells (MIPCEA cells): 5 fold
Oc1ccc(-c2nc(-c3ccncc3)c(-c3ccc(F)cc3)[nH]2)cc1 [p38MAPK inhibitor, SB202190]		suppressed	confirmed	YY1 protein by Western blot (YY1): suppressed
nivolumab	same IL2 loss as control T cells			
COc1cccc(-c2cc(=O)c3ccccc3o2)c1N [MEK1 inhibitor, PD98059]		no impact	confirmed	
